Our source for the GI50 values is patent US12673945B2, “3-((8-((1H-pyrazol-4-yl)amino)imidazo[1,2-a]pyridin-3-yl)ethinyl)-n-phenylbenzamide derivative, method for preparing same, and pharmaceutical composition containing same as active ingredient for prevention or treatment of cancer” (DAEGU-GYEONGBUK MEDICAL INNOVATION FOUNDATION, priority 2020, dated 2026).

Type in all cases: cell-based
In one experiment the test system is T315I-Bcr-Abl (Ba/F3). Kind of experiment: Ba/F3 cell proliferation inhibition. The following applies: BaF3; 72 hours, Cell Counting Kit-8. As for the experimental part: (§1) […] lymphocyte cells, Parental (Ba/F3) and T315I-Bcr-Abl (Ba/F3) were seeded in 96-well plates at the density of 1×10^4/90 μL/well. A culture solution containing 9 concentrations (0.015 to 100 μM) of each example compound serially diluted in 3 folds or DMSO (control) were added to the plate ([…]) to a final concentration of 0 to 10 μM. The plate was incubated in a 37° C. CO2 incubator for 72 hours.
(§2) After incubation for 72 hours, the plate treated with the compound was treated with Cell Counting Kit-8 (Dojindo Molecular Technologies, Inc) solution at the concentration of 10 μL/well, and then mixed well. Then, the plate was incubated in a CO2 incubator at 37° C. for 2 hours, and absorbance at 450 nm was measured with a microplate reader. Data were expressed as percentage compared to vehicle treated cells and GI50 values were calculated using GraphPad Prism 5.0 (GraphPad software Inc., San Diego) […].

The next experiment concerns Parental (Ba/F3). Kind of experiment: Ba/F3 cell proliferation inhibition. The following applies: BaF3; 72 hours, Cell Counting Kit-8. On the procedure: as §1, §2
The next experiment has as its system T315I-KOPM28 cells. Put plainly: human CML cell proliferation inhibition. To be noted: 72 hours, Cell Counting Kit-8. On the procedure:
(§3) In order to evaluate the therapeutic effect of the compound according to the present invention on chronic myelogenous leukemia (CML), the following experiment was performed, and the results are shown in Table 6 below. Inhibitory activity to Bcr-Abl kinase was evaluated through the experiment using TCCS and KOPM28 cells, and inhibitory activity to T315I-Bcr-Abl kinase was evaluated through the experiment using T315I-TCCS and T315I-KOPM28 cells.
(§4) Human chronic myelogenous leukemia (CML) cells used in the experiment were TCCS, T315I-TCCS, KOPM28 and T315I-KOPM28, and the four types of cells were provided by University of Yamanashi.
(§5) Four types of human CML cells were each seeded in 96-well plates at the density of 1×10^4/90 μL/well. A culture solution containing 9 concentrations (0.000256 to 100 μM) of each example compound serially diluted in 5 folds or DMSO (control) were added to the plate (10 μL/well) to a final concentration of 0 to 10 μM. The plate was incubated in a 37° C. CO2 incubator for 72 hours.
(§6) After incubation for 72 hours, the plate treated with the compound was treated with Cell Counting Kit-8 (Dojindo Molecular Technologies, Inc) solution at the concentration of 10 μL/well, and then mixed well. Then, the plate was incubated in a CO2 incubator at 37° C. for 2 hours, and absorbance at 450 nm was measured with a microplate reader. Data were expressed as percentage compared to vehicle treated cells and GI50 values were calculated using GraphPad Prism 8.0 (GraphPad software Inc., San Diego).

Another experiment concerns KOPM28 cells. Kind of experiment: human CML cell proliferation inhibition. To be noted: 72 hours, Cell Counting Kit-8. As for the experimental part: as §3, §4, §5, §6
Another experiment concerns TCCS cells. Put plainly: human CML cell proliferation inhibition. The following applies: 72 hours, Cell Counting Kit-8. As for the experimental part: as §3, §4, §5, §6
Another experiment has as its system T315I-TCCS cells. Put plainly: human CML cell proliferation inhibition. To be noted: 72 hours, Cell Counting Kit-8. On the procedure:
as §3, §4, §5, §6

With `Cc1cc(F)c(C(=O)Nc2ccc(CN3CCN(C)CC3)c(C(C)(C)C#N)c2)cc1C#Cc1cnc2c(Nc3cn[nH]c3)cccn12` [Example 90, 5-((8-((1H-pyrazol-4-yl)amino)imidazo[1,2-a]pyridin-3-yl)ethynyl)-N-(3-(2-cyanopropan-2-yl)-4-((4-methylpiperazin-1-yl)methyl)phenyl)-2-fluoro-4-methylbenzamide], the GI50 was below 50 nM in the experiment with T315I-Bcr-Abl (Ba/F3); 50 to 500 nM in the experiment with Parental (Ba/F3); 100 nM in the experiment with T315I-KOPM28 cells; below 10 nM in the experiment on KOPM28 cells; below 10 nM in the experiment with TCCS cells; 100 nM in the experiment on T315I-TCCS cells.
Regarding `Cc1cc(F)c(C(=O)Nc2ccc(CN3CCCN(C)CC3)c(C(C)(C)C#N)c2)cc1C#Cc1cnc2c(Nc3cnn(C)c3)cccn12` [Example 42, N-(3-(2-cyanopropan-2-yl)-4-((4-methyl-1,4-diazepan-1-yl)methyl)phenyl)-2-fluoro-4-methyl-5-((8-((1-methyl-1H-pyrazol-4-yl)amino)imidazo[1,2-a]pyridin-3-yl)ethynyl)benzamide], the concentration for 50% growth inhibition (GI50) is 50 to 500 nM in the experiment with T315I-Bcr-Abl (Ba/F3); 500 to 5000 nM in the experiment with Parental (Ba/F3); above 100 nM in the experiment on T315I-KOPM28 cells; below 10 nM in the experiment on KOPM28 cells; below 10 nM in the experiment with TCCS cells; 100 nM in the experiment on T315I-TCCS cells.
For the compound `Cc1cc(F)c(C(=O)Nc2ccc(CN3CCN(C)CC3)c(C(F)(F)F)c2)cc1C#Cc1cnc2c(Nc3cnn(C)c3)cccn12` [Example 55, 2-fluoro-4-methyl-5-((8-((1-methyl-1H-pyrazol-4-yl)amino)imidazo[1,2-a]pyridin-3-yl)ethynyl)-N-(4-((4-methylpiperazin-1-yl)methyl)-3-(trifluoromethyl)phenyl)benzamide], the GI50 with T315I-Bcr-Abl (Ba/F3) was below 50 nM; in the experiment on Parental (Ba/F3), 500 to 5000 nM; in the experiment on T315I-KOPM28 cells it was below 10 nM; in the experiment on KOPM28 cells, below 10 nM; in the experiment on TCCS cells it was below 10 nM; in the experiment with T315I-TCCS cells, below 10 nM.
`Cc1cc(F)c(C(=O)Nc2cc(-c3ccncc3)cc(C(C)(C)C#N)c2)cc1C#Cc1cnc2c(Nc3cnn(C)c3)cccn12` [Example 17, N-(3-(2-cyanopropan-2-yl)-5-(pyridin-4-yl)phenyl)-2-fluoro-4-methyl-5-((8-((1-methyl-1H-pyrazol-4-yl)amino)imidazo[1,2-a]pyridin-3-yl)ethynyl)benzamide]: the GI50 in the experiment on T315I-Bcr-Abl (Ba/F3) is 50 to 500 nM; with Parental (Ba/F3), above 5000 nM; in the experiment on T315I-KOPM28 cells, 100 nM; in the experiment with KOPM28 cells, below 10 nM; with TCCS cells it was below 10 nM; in the experiment on T315I-TCCS cells, 100 nM.
Regarding `Cc1cc(F)c(C(=O)Nc2cc(Cn3ccnc3)cc(C(C)(C)C#N)c2)cc1C#Cc1cnc2c(Nc3cnn(C)c3)cccn12` [Example 37, N-(3-((1H-imidazol-1-yl)methyl)-5-(2-cyanopropan-2-yl)phenyl)-2-fluoro-4-methyl-5-((8-((1-methyl-1H-pyrazol-4-yl)amino)imidazo[1,2-a]pyridin-3-yl)ethynyl)benzamide], the GI50 in the experiment on T315I-Bcr-Abl (Ba/F3) is 50 to 500 nM; in the experiment with Parental (Ba/F3) it was above 5000 nM; with T315I-KOPM28 cells, 100 nM; in the experiment on KOPM28 cells, below 10 nM; in the experiment with TCCS cells, below 10 nM; with T315I-TCCS cells, 100 nM.
As for `Cc1cc(F)c(C(=O)Nc2ccc(CN3CCN(C)CC3)c(C(C)(C)C#N)c2)cc1C#Cc1cnc2c(Nc3cnn(C)c3)cccn12` [Example 39, N-(3-(2-cyanopropan-2-yl)-4-((4-methylpiperazin-1-yl)methyl)phenyl)-2-fluoro-4-methyl-5-((8-((1-methyl-1H-pyrazol-4-yl)amino)imidazo[1,2-a]pyridin-3-yl)ethynyl)benzamide], the GI50 is below 50 nM with T315I-Bcr-Abl (Ba/F3); above 5000 nM in the experiment on Parental (Ba/F3); 100 nM with T315I-KOPM28 cells; below 10 nM with KOPM28 cells; below 10 nM in the experiment on TCCS cells; 100 nM in the experiment with T315I-TCCS cells.
As for `Cc1cc(F)c(C(=O)Nc2ccc(CN3CCN(C)C(=O)C3)c(C(F)(F)F)c2)cc1C#Cc1cnc2c(Nc3cn[nH]c3)cccn12` [Example 112, 5-((8-((1H-pyrazol-4-yl)amino)imidazo[1,2-a]pyridin-3-yl)ethynyl)-2-fluoro-4-methyl-N-(4-((4-methyl-3-oxopiperazin-1-yl)methyl)-3-(trifluoromethyl)phenyl)benzamide], the GI50 is 50 to 500 nM with T315I-Bcr-Abl (Ba/F3); 500 to 5000 nM in the experiment with Parental (Ba/F3); 100 nM in the experiment on T315I-KOPM28 cells; below 10 nM with KOPM28 cells; below 10 nM with TCCS cells; 100 nM in the experiment on T315I-TCCS cells.
`Cc1cc(F)c(C(=O)Nc2cc(N(C)CCN(C)C)cc(C(F)(F)F)c2)cc1C#Cc1cnc2c(Nc3cnn(C)c3)cccn12` [Example 48, N-(3-((2-(dimethylamino)ethyl)(methyl)amino)-5-(trifluoromethyl)phenyl)-2-fluoro-4-methyl-5-((8-((1-methyl-1H-pyrazol-4-yl)amino)imidazo[1,2-a]pyridin-3-yl)ethynyl)benzamide]: the GI50 with T315I-Bcr-Abl (Ba/F3) was 50 to 500 nM; in the experiment on Parental (Ba/F3), above 5000 nM; in the experiment with T315I-KOPM28 cells, above 100 nM; in the experiment with KOPM28 cells, below 10 nM; in the experiment with TCCS cells it was below 10 nM; in the experiment on T315I-TCCS cells it was 100 nM.
For the compound `Cc1cc(F)c(C(=O)Nc2cc(CN3CCCN(C)CC3)cc(C(C)(C)C#N)c2)cc1C#Cc1cnc2c(Nc3cnn(C)c3)cccn12` [Example 30, N-(3-(2-cyanopropan-2-yl)-5-((4-methyl-1,4-diazepan-1-yl)methyl)phenyl)-2-fluoro-4-methyl-5-((8-((1-methyl-1H-pyrazol-4-yl)amino)imidazo[1,2-a]pyridin-3-yl)ethynyl)benzamide], the GI50 was 50 to 500 nM in the experiment on T315I-Bcr-Abl (Ba/F3); 500 to 5000 nM in the experiment on Parental (Ba/F3); above 100 nM in the experiment with T315I-KOPM28 cells; below 10 nM with KOPM28 cells; below 10 nM with TCCS cells; 100 nM in the experiment with T315I-TCCS cells.
On to `Cc1cc(F)c(C(=O)Nc2ccc(CN3CCC(N(C)C)C3)c(C(C)(C)C#N)c2)cc1C#Cc1cnc2c(Nc3cn[nH]c3)cccn12` (stereo not drawn) [Example 91, 5-((8-((1H-pyrazol-4-yl)amino)imidazo[1,2-a]pyridin-3-yl)ethynyl)-N-(3-(2-cyanopropan-2-yl)-4-((3-(dimethylamino)pyrrolidin-1-yl)methyl)phenyl)-2-fluoro-4-methylbenzamide], for which the GI50 in the experiment with T315I-Bcr-Abl (Ba/F3) is 50 to 500 nM; with Parental (Ba/F3) it was 500 to 5000 nM; in the experiment on T315I-KOPM28 cells, above 100 nM; in the experiment on KOPM28 cells, below 10 nM; in the experiment on TCCS cells, below 10 nM; with T315I-TCCS cells, above 100 nM.
With `Cc1cc(F)c(C(=O)Nc2cc(N3CCN(C)C(=O)C3)cc(C(F)(F)F)c2)cc1C#Cc1cnc2c(Nc3cnn(C)c3)cccn12` [Example 49, 2-fluoro-4-methyl-5-((8-((1-methyl-1H-pyrazol-4-yl)amino)imidazo[1,2-a]pyridin-3-yl)ethynyl)-N-(3-(4-methyl-3-oxopiperazin-1-yl)-5-(trifluoromethyl)phenyl)benzamide], the GI50 with T315I-Bcr-Abl (Ba/F3) is 50 to 500 nM; in the experiment on Parental (Ba/F3), 500 to 5000 nM; in the experiment with T315I-KOPM28 cells, 100 nM; with KOPM28 cells it was below 10 nM; in the experiment with TCCS cells it was below 10 nM; in the experiment with T315I-TCCS cells, below 10 nM.
